Reference: publication PMC11433573 (Marine Drugs, 2024)
Positions of bridges follow the written chain, without caps; N, C: chain ends. Non-standard residues stand in square brackets, D forms with d. Residues, ends and D or L forms follow the SMILES beside them. Hyp = O=C(O)[C@@H]1C[C@@H](O)CN1

What was measured:
Assay in all cases: cell-based
rα3β4 nAChR = target: T1, rα3β4 nAChR (Rattus norvegicus, UniProt P04757+P12392); conditions: for inhibition at 10 µM: read-out: inhibition of rα3β4 at 10 μM
T1 construct: expressed in transfected cells; host or cells: Xenopus laevis oocytes injected with cRNA
T1 sequence (P04757 26-499): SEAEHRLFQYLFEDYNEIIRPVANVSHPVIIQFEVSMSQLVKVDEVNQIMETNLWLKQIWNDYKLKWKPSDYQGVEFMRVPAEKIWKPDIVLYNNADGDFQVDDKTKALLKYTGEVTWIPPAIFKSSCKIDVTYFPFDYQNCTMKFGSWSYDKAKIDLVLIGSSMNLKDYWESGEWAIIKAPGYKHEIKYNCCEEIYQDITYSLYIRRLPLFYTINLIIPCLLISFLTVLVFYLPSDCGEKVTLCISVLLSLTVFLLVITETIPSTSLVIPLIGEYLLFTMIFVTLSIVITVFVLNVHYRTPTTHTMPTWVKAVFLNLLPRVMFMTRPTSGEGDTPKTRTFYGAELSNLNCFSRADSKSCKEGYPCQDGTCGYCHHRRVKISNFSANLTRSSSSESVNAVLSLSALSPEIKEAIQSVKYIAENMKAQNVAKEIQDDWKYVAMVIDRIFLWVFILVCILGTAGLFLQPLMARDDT
T1 sequence (P12392 22-495 limits assumed): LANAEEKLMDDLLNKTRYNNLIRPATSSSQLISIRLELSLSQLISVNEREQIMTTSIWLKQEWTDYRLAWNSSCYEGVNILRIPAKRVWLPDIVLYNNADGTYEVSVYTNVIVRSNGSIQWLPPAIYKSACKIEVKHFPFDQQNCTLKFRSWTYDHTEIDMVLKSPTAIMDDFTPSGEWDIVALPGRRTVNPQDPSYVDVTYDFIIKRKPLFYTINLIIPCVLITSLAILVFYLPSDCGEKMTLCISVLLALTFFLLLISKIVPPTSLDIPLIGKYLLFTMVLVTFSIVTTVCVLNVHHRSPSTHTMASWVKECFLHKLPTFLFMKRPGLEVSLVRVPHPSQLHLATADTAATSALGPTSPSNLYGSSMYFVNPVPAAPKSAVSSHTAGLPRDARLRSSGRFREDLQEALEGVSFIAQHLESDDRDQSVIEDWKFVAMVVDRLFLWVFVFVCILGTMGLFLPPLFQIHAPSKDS

rα7 nAChR = target: T2, rα7 nAChR (Rattus norvegicus, UniProt Q05941)
T2 construct: expressed in transfected cells; host or cells: Xenopus laevis oocytes injected with cRNA
T2 sequence (Q05941 23-502): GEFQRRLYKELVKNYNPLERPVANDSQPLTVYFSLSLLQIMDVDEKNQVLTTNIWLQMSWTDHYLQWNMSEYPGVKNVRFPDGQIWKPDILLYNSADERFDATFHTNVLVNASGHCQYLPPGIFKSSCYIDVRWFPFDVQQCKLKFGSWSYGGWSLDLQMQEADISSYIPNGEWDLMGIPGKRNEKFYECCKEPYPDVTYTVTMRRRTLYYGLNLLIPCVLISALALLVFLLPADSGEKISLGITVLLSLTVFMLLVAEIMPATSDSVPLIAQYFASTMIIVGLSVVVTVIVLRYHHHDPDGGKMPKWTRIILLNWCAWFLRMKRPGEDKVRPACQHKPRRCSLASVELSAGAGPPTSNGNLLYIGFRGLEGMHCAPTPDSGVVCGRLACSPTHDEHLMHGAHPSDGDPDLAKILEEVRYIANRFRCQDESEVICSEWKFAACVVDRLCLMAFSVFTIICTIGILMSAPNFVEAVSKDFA

rα3β2 nAChR = target: T3, rα3β2 nAChR (Rattus norvegicus, UniProt P04757+P12390); conditions: for inhibition at 10 µM: read-out: inhibition of rα3β2 at 10 μM
T3 construct: expressed in transfected cells; host or cells: Xenopus laevis oocytes injected with cRNA
T3 sequence (P04757 26-499): as the sequence (P04757 26-499) above
T3 sequence (P12390 25-500): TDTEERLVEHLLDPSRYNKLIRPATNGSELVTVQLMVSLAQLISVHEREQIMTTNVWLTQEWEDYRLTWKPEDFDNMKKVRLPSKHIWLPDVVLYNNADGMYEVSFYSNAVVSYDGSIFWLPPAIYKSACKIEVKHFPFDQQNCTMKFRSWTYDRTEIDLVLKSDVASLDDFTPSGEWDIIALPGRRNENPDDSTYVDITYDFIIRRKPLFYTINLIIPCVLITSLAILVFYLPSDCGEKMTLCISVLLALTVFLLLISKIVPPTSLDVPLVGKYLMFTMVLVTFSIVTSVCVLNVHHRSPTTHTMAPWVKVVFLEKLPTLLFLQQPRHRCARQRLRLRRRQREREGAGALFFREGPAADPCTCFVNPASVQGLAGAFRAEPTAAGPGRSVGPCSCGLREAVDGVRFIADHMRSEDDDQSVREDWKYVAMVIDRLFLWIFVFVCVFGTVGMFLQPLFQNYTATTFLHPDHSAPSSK

Structure (SMILES) | IC50 (rα3β4 nAChR) [nM] | IC50 (rα7 nAChR) [nM] | IC50 (rα3β2 nAChR) [nM] | inhibition at 10 µM (rα3β4 nAChR) [%] | inhibition at 10 µM (rα3β2 nAChR) [%]
CC[C@H](C)[C@@H]1NC(=O)[C@H](Cc2cnc[nH]2)NC(=O)[C@@H]2CCCN2C(=O)[C@H](CC(N)=O)NC(=O)[C@H](CC(N)=O)NC(=O)[C@H](C(C)C)NC(=O)[C@H](CC(N)=O)NC(=O)[C@@H]2CSSC[C@H](NC(=O)CN)C(=O)N[C@@H](CSSC[C@@H](C(N)=O)NC1=O)C(=O)N[C@@H](CO)C(=O)N[C@@H](Cc1cnc[nH]1)C(=O)N1CCC[C@H]1C(=O)N[C@@H](C)C(=O)N2 [RegIIA, reference compound] (H-GCCSHPACNVNNPHIC-NH2; disulfide 2-8, 3-16) | 102 | 43 | 36 | – | –
CC[C@H](C)[C@@H]1NC(=O)[C@H](Cc2c[nH]cn2)NC(=O)[C@@H]2CCCN2C(=O)[C@H](CC(N)=O)NC(=O)[C@H](CC(N)=O)NC(=O)[C@H](C(C)C)NC(=O)[C@H](CC(N)=O)NC(=O)[C@@H]2CSSC[C@H](NC(=O)CN)C(=O)N[C@@H](CSSC[C@@H](C(N)=O)NC1=O)C(=O)N[C@@H](CO)C(=O)N[C@@H](Cc1c[nH]cn1)C(=O)N1CCC[C@H]1C(=O)NCC(=O)N2 [[A7G]RegIIA] (H-GCCSHPGCNVNNPHIC-NH2; disulfide 2-8, 3-16) | 964 | 600 | > 10000 | – | –
CC[C@H](C)[C@@H]1NC(=O)[C@H](Cc2c[nH]cn2)NC(=O)[C@@H]2CCCN2C(=O)[C@H](CC(N)=O)NC(=O)[C@H](CC(N)=O)NC(=O)[C@H](C(C)C)NC(=O)[C@H](CC(N)=O)NC(=O)[C@@H]2CSSC[C@H](NC(=O)[C@H](C)N)C(=O)N[C@@H](CSSC[C@@H](C(N)=O)NC1=O)C(=O)N[C@@H](CO)C(=O)N[C@@H](Cc1c[nH]cn1)C(=O)N1CCC[C@H]1C(=O)N[C@@H](C)C(=O)N2 [[G1A]RegIIA] (H-ACCSHPACNVNNPHIC-NH2; disulfide 2-8, 3-16) | 132 | 286 | 90 | – | –
CC[C@H](C)[C@@H]1NC(=O)[C@H](Cc2c[nH]cn2)NC(=O)[C@@H]2CCCN2C(=O)[C@H](CC(N)=O)NC(=O)[C@H](CC(N)=O)NC(=O)[C@H](C(C)C)NC(=O)[C@H](CC(N)=O)NC(=O)[C@@H]2CSSC[C@H](NC(=O)CN)C(=O)N[C@@H](CSSC[C@@H](C(N)=O)NC1=O)C(=O)N[C@@H](CO)C(=O)N[C@@H](C)C(=O)N1CCC[C@H]1C(=O)N[C@@H](C)C(=O)N2 [[H5A]RegIIA] (H-GCCSAPACNVNNPHIC-NH2; disulfide 2-8, 3-16) | > 10000 | 446 | > 10000 | < 50 | < 50
CC[C@H](C)[C@@H]1NC(=O)[C@H](Cc2c[nH]cn2)NC(=O)[C@@H]2CCCN2C(=O)[C@H](CC(N)=O)NC(=O)[C@H](CC(N)=O)NC(=O)[C@H](C(C)C)NC(=O)[C@H](CC(N)=O)NC(=O)[C@@H]2CSSC[C@H](NC(=O)CN)C(=O)N[C@@H](CSSC[C@@H](C(N)=O)NC1=O)C(=O)N[C@@H](CO)C(=O)N[C@@H](CCC(=O)O)C(=O)N1CCC[C@H]1C(=O)N[C@@H](C)C(=O)N2 [[H5E]RegIIA] (H-GCCSEPACNVNNPHIC-NH2; disulfide 2-8, 3-16) | > 10000 | 441 | > 10000 | – | –
CC[C@H](C)[C@@H]1NC(=O)[C@H](Cc2c[nH]cn2)NC(=O)[C@@H]2CCCN2C(=O)[C@H](CC(N)=O)NC(=O)[C@H](CC(N)=O)NC(=O)[C@H](C(C)C)NC(=O)[C@H](CC(N)=O)NC(=O)[C@@H]2CSSC[C@H](NC(=O)CN)C(=O)N[C@@H](CSSC[C@@H](C(N)=O)NC1=O)C(=O)N[C@@H](CO)C(=O)NCC(=O)N1CCC[C@H]1C(=O)N[C@@H](C)C(=O)N2 [[H5G]RegIIA] (H-GCCSGPACNVNNPHIC-NH2; disulfide 2-8, 3-16) | > 10000 | 3540 | > 10000 | – | –
CC[C@H](C)[C@@H]1NC(=O)[C@H](Cc2c[nH]cn2)NC(=O)[C@@H]2CCCN2C(=O)[C@H](CC(N)=O)NC(=O)[C@H](CC(N)=O)NC(=O)[C@H](C(C)C)NC(=O)[C@H](CC(N)=O)NC(=O)[C@@H]2CSSC[C@H](NC(=O)CN)C(=O)N[C@@H](CSSC[C@@H](C(N)=O)NC1=O)C(=O)N[C@@H](CO)C(=O)N[C@@H](CC(C)C)C(=O)N1CCC[C@H]1C(=O)N[C@@H](C)C(=O)N2 [[H5L]RegIIA] (H-GCCSLPACNVNNPHIC-NH2; disulfide 2-8, 3-16) | > 10000 | > 10000 | > 10000 | – | –
CC[C@H](C)[C@@H]1NC(=O)[C@H](Cc2c[nH]cn2)NC(=O)[C@@H]2CCCN2C(=O)[C@H](CC(N)=O)NC(=O)[C@H](CC(N)=O)NC(=O)[C@H](C(C)C)NC(=O)[C@H](CC(N)=O)NC(=O)[C@@H]2CSSC[C@H](NC(=O)CN)C(=O)N[C@@H](CSSC[C@@H](C(N)=O)NC1=O)C(=O)N[C@@H](CO)C(=O)N[C@@H](CO)C(=O)N1CCC[C@H]1C(=O)N[C@@H](C)C(=O)N2 [[H5S]RegIIA] (H-GCCSSPACNVNNPHIC-NH2; disulfide 2-8, 3-16) | 5730 | 100 | > 10000 | – | –
CC[C@H](C)[C@@H]1NC(=O)[C@H](Cc2c[nH]cn2)NC(=O)[C@@H]2CCCN2C(=O)[C@H](CC(N)=O)NC(=O)[C@H](CC(N)=O)NC(=O)[C@H](C(C)C)NC(=O)[C@H](CC(N)=O)NC(=O)[C@@H]2CSSC[C@H](NC(=O)CN)C(=O)N[C@@H](CSSC[C@@H](C(N)=O)NC1=O)C(=O)N[C@@H](CO)C(=O)N[C@@H](C(C)C)C(=O)N1CCC[C@H]1C(=O)N[C@@H](C)C(=O)N2 [[H5V]RegIIA] (H-GCCSVPACNVNNPHIC-NH2; disulfide 2-8, 3-16) | 8800 | 97 | > 10000 | – | –
CC[C@H](C)[C@@H]1NC(=O)[C@H](Cc2c[nH]cn2)NC(=O)[C@@H]2CCCN2C(=O)[C@H](CC(N)=O)NC(=O)[C@H](CC(N)=O)NC(=O)[C@H](C(C)C)NC(=O)[C@H](CC(N)=O)NC(=O)[C@@H]2CSSC[C@H](NC(=O)CN)C(=O)N[C@@H](CSSC[C@@H](C(N)=O)NC1=O)C(=O)N[C@@H](CO)C(=O)N[C@@H](Cc1c[nH]cn1)C(=O)N[C@@H](C)C(=O)N[C@@H](C)C(=O)N2 [[P6A]RegIIA] (H-GCCSHAACNVNNPHIC-NH2; disulfide 2-8, 3-16) | > 10000 | 459 | > 10000 | < 50 | < 50
CC[C@H](C)[C@@H]1NC(=O)[C@H](Cc2c[nH]cn2)NC(=O)[C@@H]2CCCN2C(=O)[C@H](CC(N)=O)NC(=O)[C@H](CC(N)=O)NC(=O)[C@H](C(C)C)NC(=O)[C@H](CC(N)=O)NC(=O)[C@@H]2CSSC[C@H](NC(=O)CN)C(=O)N[C@@H](CSSC[C@@H](C(N)=O)NC1=O)C(=O)N[C@@H](CO)C(=O)N[C@@H](Cc1c[nH]cn1)C(=O)N1C[C@H](O)C[C@H]1C(=O)N[C@@H](C)C(=O)N2 [[P6O]RegIIA] (H-GCCSH[Hyp]ACNVNNPHIC-NH2; disulfide 2-8, 3-16) | > 10000 | > 10000 | > 10000 | – | –
CC[C@H](C)[C@@H]1NC(=O)[C@H](Cc2c[nH]cn2)NC(=O)[C@@H]2CCCN2C(=O)[C@H](CC(N)=O)NC(=O)[C@H](CC(N)=O)NC(=O)[C@H](C(C)C)NC(=O)[C@H](CC(N)=O)NC(=O)[C@@H]2CSSC[C@H](NC(=O)CN)C(=O)N[C@@H](CSSC[C@@H](C(N)=O)NC1=O)C(=O)N[C@@H](C)C(=O)N[C@@H](Cc1c[nH]cn1)C(=O)N1CCC[C@H]1C(=O)N[C@@H](C)C(=O)N2 [[S4A]RegIIA] (H-GCCAHPACNVNNPHIC-NH2; disulfide 2-8, 3-16) | 95 | 39 | 34 | – | –
